Values of other authors in patent publication US20130177904A1, “ARNT ISOFORM 3 AS A PREDICTOR OF AMINOFLAVONE RESPONSIVENESS IN CANCER CELLS” (UNIVERSITY OF MARYLAND, BALTIMORE, priority 2010, published 2013).

Test system: nonspecific plasma esterases
Details: by nonspecific plasma esterases; cited from earlier work

CS(=O)(=O)O.Cc1c(F)c(N)c2c(=O)cc(-c3ccc(NC(=O)[C@@H](N)CCCCN)c(F)c3)oc2c1F [AFP-464]
conversion to AF in plasma: rapid conversion to AF
